Drawing on patent publication US20250179103A1, “6-OXODECAHYDROPYRROLO[1,2-A][1,5]DIAZOCINE AND 6-OXODECAHYDRO-4H-PYRROLO[2,1-D][1,5]THIAZOCINE DERIVATIVES AS STAT3 AND STAT6 MODULATORS FOR THE TREATMENT OF CANCER AND INFLAMMATORY CONDITIONS” (Recludix Pharma, Inc., priority 2022, published 2025), this text covers IC50 for 13 compounds.

The term IC50 denotes the concentration that inhibits the measured activity by half.

A value given as a limit tells only on which side of the number the result lay.

In assay [1] the target is T1, Recombinant STAT6 protein (STAT6(W123-T658)) (Homo sapiens, UniProt P42226).
T1 construct: Recombinant STAT6 protein (STAT6(W123-T658))
T1 sequence (P42226 123-658): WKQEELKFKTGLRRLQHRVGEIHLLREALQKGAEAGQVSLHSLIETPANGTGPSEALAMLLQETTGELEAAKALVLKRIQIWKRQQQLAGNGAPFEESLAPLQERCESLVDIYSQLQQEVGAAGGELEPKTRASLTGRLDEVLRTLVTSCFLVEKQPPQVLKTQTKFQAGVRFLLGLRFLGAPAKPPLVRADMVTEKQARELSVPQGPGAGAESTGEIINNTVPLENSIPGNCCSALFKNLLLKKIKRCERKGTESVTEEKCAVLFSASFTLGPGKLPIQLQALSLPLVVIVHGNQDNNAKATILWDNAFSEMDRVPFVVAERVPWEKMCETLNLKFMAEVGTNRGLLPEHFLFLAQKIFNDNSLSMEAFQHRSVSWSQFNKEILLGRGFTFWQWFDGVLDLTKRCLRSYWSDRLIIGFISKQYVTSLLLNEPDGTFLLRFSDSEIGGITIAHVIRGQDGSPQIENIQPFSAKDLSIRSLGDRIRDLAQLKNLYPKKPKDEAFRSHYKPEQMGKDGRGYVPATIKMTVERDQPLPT
The assay is described as follows: STAT6 Fluorescence Polarization (FP) Assay. The assay is classed as binding. Conditions: STAT6(W123-T658) 250 nM, probe 5-FAM-ApYKPFQDLI-NH2 2 nM, 45-minute incubation. The gist of the method:
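Displacement of a fluorescent phosphotyrosine peptide (5-FAM-ApYKPFQDLI-NH2, 2 nM) from STAT6(W123-T658) (250 nM), 1% DMSO, pH 7.4 HEPES buffer. After 45 min at room temperature, polarization (mP) was plotted versus log compound concentration and fitted by nonlinear regression to give IC50.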
(Polarisation of emitted light reports the rotation of a fluorescent probe.)

The target of assay [2] is T2, Recombinant STAT3 protein (STAT3(G127-I722)) (Homo sapiens, UniProt P40763).
T2 construct: Recombinant STAT3 protein (STAT3(G127-I722))
T2 sequence (P40763 127-722): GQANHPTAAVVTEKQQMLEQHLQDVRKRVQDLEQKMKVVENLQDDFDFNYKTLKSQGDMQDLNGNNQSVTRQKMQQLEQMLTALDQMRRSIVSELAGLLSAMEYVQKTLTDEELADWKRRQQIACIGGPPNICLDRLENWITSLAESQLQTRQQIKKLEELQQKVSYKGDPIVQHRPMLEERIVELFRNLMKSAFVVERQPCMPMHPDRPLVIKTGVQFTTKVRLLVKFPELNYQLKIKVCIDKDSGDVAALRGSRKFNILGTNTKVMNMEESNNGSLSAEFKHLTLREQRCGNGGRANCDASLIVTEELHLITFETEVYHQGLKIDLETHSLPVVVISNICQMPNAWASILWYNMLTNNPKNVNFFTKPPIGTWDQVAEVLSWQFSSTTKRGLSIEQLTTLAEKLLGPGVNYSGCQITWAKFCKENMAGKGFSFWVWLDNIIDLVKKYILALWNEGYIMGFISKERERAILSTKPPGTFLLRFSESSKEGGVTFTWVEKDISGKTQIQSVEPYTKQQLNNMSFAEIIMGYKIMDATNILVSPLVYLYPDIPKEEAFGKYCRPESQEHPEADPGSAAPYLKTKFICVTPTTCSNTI
The assay is described as follows: STAT3 Fluorescence Polarization (FP) Assay. Type of assay: binding. The note with it: STAT3(G127-I722) 25 nM, probe 5-FAM-GpYLPQTV-NH2 2 nM, 45-minute incubation. In a few lines:
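STAT3(G127-I722), 25 nM, was mixed with 2 nM 5-FAM-GpYLPQTV-NH2 probe in HEPES pH 7.4 buffer with 1% DMSO and serially diluted compound. FP (mP) was read after 45 min at room temperature. IC50 came from nonlinear regression.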

With `Cc1ccc2onc(C(=O)N3CC[C@H]4CC[C@@H](C(=O)N5C[C@@H](c6ccn(C)c(=O)c6)CC56CC6)N4C(=O)[C@@H](NC(=O)c4ccc5ccc([C@@H](F)P(=O)(O)O)cc5c4)C3)c2c1` [Compound 380, ((S)-fluoro(7-(((5S,8S, 10aR)-8-((R)-6-(1-methyl-2-oxo-1,2-dihydropyridin-4-yl)-4-azaspiro[2.4]heptane-4-carbonyl)-3-(5-methylbenzo[d]isoxazole-3-carbonyl)-6-oxodecahydropyrrolo [1,2-a][1,5]diazocin-5-yl)carbamoyl)naphthalen-2-yl)methyl)phosphonic acid], the results for the IC50 in assay [1] and in assay [2] were at most 0.3 µM and over 10 µM, respectively.

As to `Cc1ccc2onc(C(=O)N3CC[C@H]4CC[C@@H](C(=O)N5C[C@H](c6cc[nH]c(=O)c6)CC56CC6)N4C(=O)[C@@H](NC(=O)c4ccc5ccc(C(F)(F)P(=O)(O)O)cc5c4)C3)c2c1` [Compound 381, (difluoro(7-(((5S,8S, 10aR)-3-(5-methylbenzo[d]isoxazole-3-carbonyl)-6-oxo-8-((S)-6-(2-oxo-1,2-dihydropyridin-4-yl)-4-azaspiro[2.4]heptane-4-carbonyl)decahydropyrrolo [1,2-a][1,5]diazocin-5-yl)carbamoyl)naphthalen-2-yl)methyl)phosphonic acid], the IC50 is at most 0.3 µM in assay [1] and 1 to 10 µM in assay [2].

For `Cc1ccc2onc(C(=O)N3CC[C@H]4CC[C@@H](C(=O)N5C[C@H](c6ccn(C)c(=O)c6)CC56CC6)N4C(=O)[C@@H](NC(=O)c4ccc5ccc(C(F)(F)P(=O)(O)O)cc5c4)C3)c2c1` [Compound 382, (difluoro(7-(((5S,8S, 10aR)-8-((S)-6-(1-methyl-2-oxo-1,2-dihydropyridin-4-yl)-4-azaspiro[2.4]heptane-4-carbonyl)-3-(5-methylbenzo[d]isoxazole-3-carbonyl)-6-oxodecahydropyrrolo [1,2-a][1,5]diazocin-5-yl)carbamoyl)naphthalen-2-yl)methyl)phosphonic acid], the half-maximal inhibitory concentration (IC50) in assay [1] was at most 0.3 µM; in assay [2] it was 1 to 10 µM.

With `Cc1ccc2onc(C(=O)N3CC[C@H]4CC[C@@H](C(=O)N5C[C@@H](c6ccn(C)c(=O)c6)CC56CC6)N4C(=O)[C@@H](NC(=O)c4ccc5ccc(C(F)(F)P(=O)(O)O)cc5c4)C3)c2c1` [Compound 383, (difluoro(7-(((5S,8S, 10aR)-8-((R)-6-(1-methyl-2-oxo-1,2-dihydropyridin-4-yl)-4-azaspiro[2.4]heptane-4-carbonyl)-3-(5-methylbenzo[d]isoxazole-3-carbonyl)-6-oxodecahydropyrrolo [1,2-a][1,5]diazocin-5-yl)carbamoyl)naphthalen-2-yl)methyl)phosphonic acid], the 50% inhibitory concentration (IC50) in assay [1] was at most 0.3 µM; in assay [2] it was 1 to 10 µM.

Consider `Cc1ccc2onc(C(=O)N3CC[C@H]4CC[C@@H](C(=O)N5CCOCC5)N4C(=O)[C@@H](NC(=O)c4ccc5c(C#N)cc(CP(=O)(O)O)cc5c4)C3)c2c1` [Compound 384, ((4-cyano-7-(((5S,8S, 10aR)-3-(5-methylbenzo[d]isoxazole-3-carbonyl)-8-(morpholine-4-carbonyl)-6-oxodecahydropyrrolo [1,2-a][1,5]diazocin-5-yl)carbamoyl)naphthalen-2-yl)methyl) phosphonic acid], for which the IC50 in assay [1] was 0.3 to 3 µM; in assay [2], over 10 µM.

For `Cc1ccc2onc(C(=O)N3CC[C@H]4CC[C@@H](C(=O)N5C[C@@H](c6cc[nH]c(=O)c6)CC56CC6)N4C(=O)[C@@H](NC(=O)c4ccc5ccc(C(F)(F)P(=O)(O)O)cc5c4)C3)c2c1` [Compound 385, (difluoro(7-(((5S,8S, 10aR)-3-(5-methyl-benzo[d]isoxazole-3-carbonyl)-6-oxo-8-((R)-6-(2-oxo-1,2-dihydro-pyridin-4-yl)-4-azaspiro [2.4]heptane-4-carbonyl)decahydro-pyrrolo[1,2-a][1,5]diazocin-5-yl)carbamoyl)naphthalen-2-yl)methyl) phosphonic acid], the values for the IC50 in assay [1] and in assay [2] were at most 0.3 µM and 1 to 10 µM, respectively.

As to `Cc1ccc2onc(C(=O)N3CC[C@H]4CC[C@@H](C(=O)N5C(=O)N(c6cccnc6)C(=O)C56CC6)N4C(=O)[C@@H](NC(=O)c4ccc5ccc([C@H](F)P(=O)(O)O)cc5c4)C3)c2c1` [Compound 386, ((R)-(7-(((5S,8S, 10aR)-8-(5,7-dioxo-6-(pyridin-3-yl)-4,6-diazaspiro[2.4]heptane-4-carbonyl)-3-(5-methylbenzo[d]isoxazole-3-carbonyl)-6-oxodecahydropyrrolo [1,2-a][1,5]diazocin-5-yl)carbamoyl)naphthalen-2-yl)fluoromethyl)phosphonic acid], the values for the IC50 in assay [1] and in assay [2] were at most 0.3 µM and over 10 µM, respectively.

In the case of `Cc1ccc2onc(C(=O)N3CC[C@H]4CC[C@@H](C(=O)N5C[C@@H](c6ccn(C)c(=O)c6)CC56CC6)N4C(=O)[C@@H](NC(=O)c4ccc5ccc([C@H](F)P(=O)(O)O)cc5c4)C3)c2c1` [Compound 387, ((R)-fluoro(7-(((5S, 8S,10aR)-8-((R)-6-(1-methyl-2-oxo-1,2-dihydropyridin-4-yl)-4-azaspiro[2.4]heptane-4-carbonyl)-3-(5-methylbenzo[d]isoxazole-3-carbonyl)-6-oxodecahydro-pyrrolo[1,2-a][1,5]diazocin-5-yl)carbamoyl)naphthalen-2-yl)methyl) phosphonic acid], the concentration for half-maximal inhibition (IC50) in assay [1] is at most 0.3 µM; in assay [2] it was over 10 µM.

`COc1cc(C(=O)N[C@H]2CN(C(=O)c3noc4ccc(C)cc34)CC[C@H]3CC[C@@H](C(=O)N4CCOCC4)N3C2=O)cc2cc(CP(=O)(O)O)ccc12` [Compound 388, ((5-methoxy-7-(((5S, 8S,10aR)-3-(5-methylbenzo[d]isoxazole-3-carbonyl)-8-(morpholine-4-carbonyl)-6-oxodecahydropyrrolo [1,2-a][1,5]diazocin-5-yl)carbamoyl)naphthalen-2-yl)methyl) phosphonic acid]: the IC50 in assay [1] is 0.3 to 3 µM; in assay [2], over 10 µM.

With `Cc1cc(Cl)cc(C(=O)N2CC[C@H](NC(=O)c3ccc4ccc(C(F)P(=O)(O)O)cc4c3)C(=O)N3[C@H](CC[C@H]3C(=O)N3CCOCC3)C2)c1` (stereo partly drawn) [Compound 389, ((7-(((5S,8S,10aR)-2-(3-chloro-5-methyl-benzoyl)-8-(morpholine-4-carbonyl)-6-oxodecahydropyrrolo [1,2-a][1,4]diazocin-5-yl)carbamoyl)naphthalen-2-yl)fluoromethyl) phosphonic acid], the IC50 in assay [1] was 0.3 to 3 µM; in assay [2], over 10 µM.

Regarding `Cc1ccc2onc(C(=O)N3CC[C@H]4CC[C@@H](C(=O)N5C[C@H](c6ccn(C)c(=O)c6)CC56CC6)N4C(=O)[C@@H](NC(=O)c4ccc5ccc([C@H](F)P(=O)(O)O)cc5c4)C3)c2c1` [Compound 390, ((R)-fluoro(7-(((5S, 8S,10aR)-8-((S)-6-(1-methyl-2-oxo-1,2-dihydropyridin-4-yl)-4-azaspiro[2.4]heptane-4-carbonyl)-3-(5-methylbenzo[d]isoxazole-3-carbonyl)-6-oxodecahydropyrrolo [1,2-a][1,5]diazocin-5-yl)carbamoyl)naphthalen-2-yl)methyl)phosphonic acid], the half-inhibitory concentration (IC50) in assay [1] was at most 0.3 µM; in assay [2], 1 to 10 µM.

With `Cc1ccc2onc(C(=O)N3CC[C@H]4CC[C@@H](C(=O)N5C[C@H](c6ccn(C)c(=O)c6)CC56CC6)N4C(=O)[C@@H](NC(=O)c4ccc5ccc([C@@H](F)P(=O)(O)O)cc5c4)C3)c2c1` [Compound 391, ((S)-fluoro(7-(((5S, 8S,10aR)-8-((S)-6-(1-methyl-2-oxo-1,2-dihydropyridin-4-yl)-4-azaspiro[2.4]heptane-4-carbonyl)-3-(5-methylbenzo[d]isoxazole-3-carbonyl)-6-oxodecahydropyrrolo [1,2-a][1,5]diazocin-5-yl)carbamoyl)naphthalen-2-yl)methyl) phosphonic acid], the results for the IC50 in assay [1] and in assay [2] were at most 0.3 µM and over 10 µM, respectively.

For `O=C(N[C@H]1CN(c2cc3ccccc3cn2)CC[C@H]2CC[C@@H](C(=O)N3CCOCC3)N2C1=O)c1ccc2ccc(C(F)P(=O)(O)O)cc2c1` (stereo partly drawn) [Compound 392, (fluoro(7-(((5S,8S, 10aR)-3-(isoquinolin-3-yl)-8-(morpholine-4-carbonyl)-6-oxodecahydropyrrolo [1,2-a][1,5]diazocin-5-yl)carbamoyl)naphthalen-2-yl)methyl)phosphonic acid], the figures for the 50% inhibitory concentration (IC50) in assay [1] and in assay [2] were 3 to 30 µM and 1 to 10 µM, respectively.
